The values below come from US9963463B2, “Urea-substituted indanes as P38 map kinase inhibitors” (TORRENT PHARMACEUTICALS LIMITED, priority 2014, dated 2018).

A word on the inhibition: it is the change of the read-out against control, counted positive when it falls.

Molecules are shown by their SMILES.

T1 sequence (Q16539 whole entry): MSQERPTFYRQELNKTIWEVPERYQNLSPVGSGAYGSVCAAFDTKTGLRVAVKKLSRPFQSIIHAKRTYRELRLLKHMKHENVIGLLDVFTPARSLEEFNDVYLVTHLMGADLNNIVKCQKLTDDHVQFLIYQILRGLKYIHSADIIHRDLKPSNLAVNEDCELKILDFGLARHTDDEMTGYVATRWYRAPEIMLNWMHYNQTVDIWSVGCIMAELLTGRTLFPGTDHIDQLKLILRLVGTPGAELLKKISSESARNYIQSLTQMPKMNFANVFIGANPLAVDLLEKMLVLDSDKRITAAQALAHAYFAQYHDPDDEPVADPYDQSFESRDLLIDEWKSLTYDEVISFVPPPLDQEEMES

One assay concerns the target T1, purified recombinant human p38 alpha MAPK (Homo sapiens, UniProt Q16539).
T1 construct: purchased Millipore, USA
In words: Inhibition of p38 alpha MAPK activity, TR-FRET kinase assay. It counts as biochemical. The settings on record: Concentration 1 μM. On the procedure: Inhibition of p38 Alpha MAPK Activity: Time-Resolved Fluorescence Resonance Energy Transfer Kinase Standard Assay (TR-FRET Assay)
Compounds of present invention at various concentrations were premixed with DMSO. The experiment was initiated by mixing 0.5%-1.0% DMSO as vehicle/compounds with purified recombinant human p38 alpha MAPK (Millipore, USA) in the wells and 15 min incubation at room temperature. Thereafter, 30 nM of Biotinylated GST-ATF2 (Activation transcription Factor2) and 100 μM of ATP were added in to the wells containing reaction mixture, followed by reincubation for 60 minutes at RT. Reaction was terminated by addition of 10 mM of EDTA and detection reagent containing anti-phosphotheronine ATF2 antibody (PerkinElmer®, USA) labeled with europium chelate and APC (Allophycocyanin) labeled streptavidin, into the reaction mixture which was further incubated for 60 minutes at room temperature. The degree of phosphorylation of the substrate (GST-ATF2) was measured using Envision multimode reader (PerkinElmer®). Percentage inhibition of p38 kinase activity was calculated by determining ratio of specific europium 665 nm energy transfer signal to reference 615 nm signal.
`COc1ccccc1-c1nnc2n1CCN(CCOc1ccc(NC(=O)Nc3cc(C(C)(C)C)nn3-c3ccc(O)c(Cl)c3)c3c1CCC3)C2` [Compound 25, 1-[3-tert-buty1-1-(3-chloro-4-hydroxyphenyl)-1H-pyrazol-5-yl]-3-(7-{2-[3-(2-methoxyphenyl)-5,6-dihydro[1,2,4]triazolo[4,3-a]pyrazin-7(8H)-yl]ethoxy}-2,3-dihydro-1H-inden-4-yl)urea]: the “P38α Inhibition” value is listed as “+++++ (+++++ = Inhibition ≥80% ≥ 100%)”.

Staying with this assay, now noted: Concentration 1 μM; read-out: P38α Inhibition.
Turning to `CCc1ccc(-n2nc(C(C)(C)C)cc2NC(=O)Nc2ccc(OCCN3CCn4c(nnc4-c4ccccc4OC)C3)c3c2CCC3)cc1` [Compound 23, 1-[3-tert-butyl-1-(4-ethylphenyl)-1H-pyrazol-5-yl]-3-(7-{2-[3-(2-methoxyphenyl)-5,6-dihydro[1,2,4]triazolo[4,3-a]pyrazin-7(8H)-yl]ethoxy}-2,3-dihydro-1H-inden-4-yl)urea], the inhibition at 1 µM is 80 to 100%.
Still for that read-out and setting: as for `CSc1ccccc1-c1nnc2n1CCN(CCOc1ccc(NC(=O)Nc3cc(C(C)(C)C)nn3-c3ccc(O)c(Cl)c3)c3c1CCC3)C2` [Compound 24, 1-[3-tert-butyl-1-(3-chloro-4-hydroxyphenyl)-1H-pyrazol-5-yl]-3-[7-(2-{3-[2-(methylsulfanyl)phenyl]-5,6-dihydro[1,2,4]triazolo[4,3-a]pyrazin-7(8H)-yl}ethoxy)-2,3-dihydro-1H-inden-4-yl]urea], the figure is 80 to 100%; as for `CC(C)(C)c1cc(NC(=O)Nc2ccc(OCCN3CCn4c(nnc4-c4ccccc4O)C3)c3c2CCC3)n(-c2ccc(O)c(Cl)c2)n1` [Compound 26, 1-[3-tert-butyl-1-(3-chloro-4-hydroxyphenyl)-1H-pyrazol-5-yl]-3-(7-{2-[3-(2-hydroxyphenyl)-5,6-dihydro[1,2,4]triazolo[4,3-a]pyrazin-7(8H)-yl]ethoxy}-2,3-dihydro-1H-inden-4-yl)urea], 80 to 100%; as for `CCCOc1ccccc1-c1nnc2n1CCN(CCOc1ccc(NC(=O)Nc3cc(C(C)(C)C)nn3-c3ccc(O)c(Cl)c3)c3c1CCC3)C2` [Compound 27, 1-[3-tert-butyl-1-(3-chloro-4-hydroxyphenyl)-1H-pyrazol-5-yl]-3-(7-{2-[3-(2-propoxyphenyl)-5,6-dihydro[1,2,4]triazolo[4,3-a]pyrazin-7(8H)-yl]ethoxy}-2,3-dihydro-1H-inden-4-yl)urea], 80 to 100%.
On to `Cc1ccc(-n2nc(C(C)(C)C)cc2NC(=O)Nc2ccc(OCCCN3CCN(CC4CC4)C(=O)C3)c3c2CCC3)cc1` [Compound 28, 1-[3-tert-butyl-1-(4-methylphenyl)-1H-pyrazol-5-yl]-3-(7-{3-[4-(cyclopropylmethyl)-3-oxopiperazin-1-yl]propoxy}-2,3-dihydro-1H-inden-4-yl)urea], for which the inhibition at 1 µM was 80 to 100%.
Still for that read-out and setting: as for `Cc1ccc(-n2nc(C(C)(C)C)cc2NC(=O)Nc2ccc(OCCN3CCn4c(nnc4-c4cccc(Cl)c4O)C3)c3c2CCC3)cc1` [Compound 29, 1-[3-tert-butyl-1-(4-methylphenyl)-1H-pyrazol-5-yl]-3-(7-{2-[3-(3-chloro-2-hydroxyphenyl)-5,6-dihydro[1,2,4]triazolo[4,3-a]pyrazin-7(8H)-yl]ethoxy}-2,3-dihydro-1H-inden-4-yl)urea], the figure is 80 to 100%; as for `Cc1ccc(-n2nc(C(C)(C)C)cc2NC(=O)Nc2ccc(OCCN3CCn4c(nnc4-c4ccccc4OCCO)C3)c3c2CCC3)cc1` [Compound 30, 1-[3-tert-butyl-1-(4-methylphenyl)-1H-pyrazol-5-yl]-3-[7-(2-{3-[2-(2-hydroxyethoxy)phenyl]-5,6-dihydro[1,2,4]triazolo[4,3-a]pyrazin-7(8H)-yl}ethoxy)-2,3-dihydro-1H-inden-4-yl]urea], 80 to 100%; as for `Cc1ccc(-n2nc(C(C)(C)C)cc2NC(=O)Nc2ccc(OCCN3CCn4c(nnc4-c4ccc(O)c(Cl)c4)C3)c3c2CCC3)cc1` [Compound 31, 1-[3-tert-butyl-1-(4-methylphenyl)-1H-pyrazol-5-yl]-3-(7-{2-[3-(3-chloro-4-hydroxyphenyl)-5,6-dihydro[1,2,4]triazolo[4,3-a]pyrazin-7(8H)-yl]ethoxy}-2,3-dihydro-1H-inden-4-yl)urea], 80 to 100%.
Consider `CCCCOc1ccccc1-c1nnc2n1CCN(CCOc1ccc(NC(=O)Nc3cc(C(C)(C)C)nn3-c3ccc(C)cc3)c3c1CCC3)C2` [Compound 32, 1-(7-{2-[3-(2-butoxyphenyl)-5,6-dihydro[1,2,4]triazolo[4,3-a]pyrazin-7(8H)-yl]ethoxy}-2,3-dihydro-1H-inden-4-yl)-3-[3-tert-butyl-1-(4-methylphenyl)-1H-pyrazol-5-yl]urea], for which the inhibition at 1 µM fell in the range of 80 to 100%.
On to `CCCSc1ccccc1-c1nnc2n1CCN(CCOc1ccc(NC(=O)Nc3cc(C(C)(C)C)nn3-c3ccc(C)cc3)c3c1CCC3)C2` [Compound 33, 1-[3-tert-butyl-1-(4-methylphenyl)-1H-pyrazol-5-yl]-3-[7-(2-{3-[2-(propylsulfanyl)phenyl]-5,6-dihydro[1,2,4]triazolo[4,3-a]pyrazin-7(8H)-yl}ethoxy)-2,3-dihydro-1H-inden-4-yl]urea], for which the inhibition at 1 µM fell in the range of 80 to 100%.
Regarding `Cc1ccc(-n2nc(C(C)(C)C)cc2NC(=O)Nc2ccc(OCCN3CCn4c(nnc4-c4ccc(O)cc4)C3)c3c2CCC3)cc1` [Compound 34, 1-[3-tert-butyl-1-(4-methylphenyl)-1H-pyrazol-5-yl]-3-(7-{2-[3-(4-hydroxyphenyl)-5,6-dihydro[1,2,4]triazolo[4,3-a]pyrazin-7(8H)-yl]ethoxy}-2,3-dihydro-1H-inden-4-yl)urea], the inhibition at 1 µM was 80 to 100%.
As for `CCCSc1ccccc1-c1nnc2n1CCN(CCOc1ccc(NC(=O)Nc3cc(C(C)(C)C)nn3-c3ccc(O)c(Cl)c3)c3c1CCC3)C2` [Compound 35, 1-[3-tert-butyl-1-(3-chloro-4-hydroxyphenyl)-1H-pyrazol-5-yl]-3-[7-(2-{3-[2-(propylsulfanyl)phenyl]-5,6-dihydro[1,2,4]triazolo[4,3-a]pyrazin-7(8H)-yl}ethoxy)-2,3-dihydro-1H-inden-4-yl]urea], the inhibition at 1 µM lay within 80 to 100%.
Regarding `Cc1ccc(-n2nc(C(C)(C)C)cc2NC(=O)Nc2ccc(OCCN3CCn4c(nnc4-c4cccc(O)c4)C3)c3c2CCC3)cc1` [Compound 36, 1-[3-tert-butyl-1-(4-methylphenyl)-1H-pyrazol-5-yl]-3-(7-{2-[3-(3-hydroxyphenyl)-5,6-dihydro[1,2,4]triazolo[4,3-a]pyrazin-7(8H)-yl]ethoxy}-2,3-dihydro-1H-inden-4-yl)urea], the inhibition at 1 µM was in the range of 80 to 100%.
`Cc1ccc(-n2nc(C(C)(C)C)cc2NC(=O)Nc2ccc(OCCN3CCn4c(nnc4-c4ccc(O)cc4O)C3)c3c2CCC3)cc1` [Compound 37, 1-[3-tert-butyl-1-(4-methylphenyl)-1H-pyrazol-5-yl]-3-(7-{2-[3-(2,4-dihydroxyphenyl)-5,6-dihydro[1,2,4]triazolo[4,3-a]pyrazin-7(8H)-yl]ethoxy}-2,3-dihydro-1H-inden-4-yl)urea]: the inhibition at 1 µM was 80 to 100%.
As for `Cc1ccc(-n2nc(C(C)(C)C)cc2NC(=O)Nc2ccc(OCCN3CCn4c(nnc4-c4cc(Cl)ccc4O)C3)c3c2CCC3)cc1` [Compound 38], the inhibition at 1 µM is 80 to 100%.
The same measure, in the same setting: with `COc1c(NC(=O)Nc2ccc(OCCN3CCN(CC4CC4)C(=O)C3)c3c2CCC3)cc(C(C)(C)C)cc1NS(C)(=O)=O` [Compound 39, N-(5-tert-butyl-3-{[(7-{2-[4-(cyclopropylmethyl)-3-oxopiperazin-1-yl]ethoxy}-2,3-dihydro-1H-inden-4-yl)carbamoyl]amino}-2-methoxyphenyl)methanesulfonamide] the figure was 80 to 100%.
Same read-out and setting: with `COc1c(NC(=O)Nc2ccc(OCCN3CCn4c(nnc4-c4ccccc4O)C3)c3c2CCC3)cc(C(C)(C)C)cc1NS(C)(=O)=O` [Compound 40, N-(5-tert-butyl-3-{[(7-{2-[3-(2-hydroxyphenyl)-5,6-dihydro[1,2,4]triazolo[4,3-a]pyrazin-7(8H)-yl]ethoxy}-2,3-dihydro-1H-inden-4-yl)carbamoyl]amino}-2-methoxyphenyl)methanesulfonamide] the figure was 80 to 100%.
The same measure, in the same setting: as for `COc1c(NC(=O)Nc2ccc(OCCCN3CCN(CC4CC4)C(=O)C3)c3c2CCC3)cc(C(C)(C)C)cc1NS(C)(=O)=O` [Compound 41, N-(5-tert-butyl-3-{[(7-{3-[4-(cyclopropylmethyl)-3-oxopiperazin-1-yl]propoxy}-2,3-dihydro-1H-inden-4-yl)carbamoyl]amino}-2-methoxyphenyl) methanesulfonamide], the figure is 60 to 80%.
Consider `CCCSc1ccccc1-c1nnc2n1CCN(CCOc1ccc(NC(=O)Nc3cc(C(C)(C)C)cc(NS(C)(=O)=O)c3OC)c3c1CCC3)C2` [Compound 42, N-[5-tert-butyl-2-methoxy-3-({[7-(2-{3-[2-(propylsulfanyl)phenyl]-5,6-dihydro[1,2,4]triazolo[4,3-a]pyrazin-7(8H)-yl}ethoxy)-2,3-dihydro-1H-inden-4-yl]carbamoyl}amino)phenyl]methanesulfonamide], for which the inhibition at 1 µM was in the range of 80 to 100%.
The same measure, in the same setting: with `CCCCN1CCN(CCOc2ccc(NC(=O)Nc3cc(C(C)(C)C)cc(NS(C)(=O)=O)c3OC)c3c2CCC3)CC1=O` [Compound 44, N-{5-tert-butyl-3-[({7-[2-(4-butyl-3-oxopiperazin-1-yl)ethoxy]-2,3-dihydro-1H-inden-4-yl}carbamoyl)amino]-2-methoxyphenyl} methanesulfonamide] the figure was 80 to 100%.
